Measurements: PMC7277448, “Discovery of Hordenine as a Potential Inhibitor of Pyruvate Dehydrogenase Kinase 3: Implication in Lung Cancer Therapy” (Biomedicines, 2020)
Several values for one entry are separate records, joined by “and”; a condition that tells them apart may be missing. Equal values may be shown once.

Legend:
PDK3 [1] = target: T1, PDK3 (Homo sapiens, UniProt Q15120); assay: Fluorescence binding (quenching, modified Stern-Volmer); conditions: PDK3 4 μM, modified Stern-Volmer equation; read-out: Binding constant (K) from fluorescence studies (converted)
T1 construct: made in house
Description: The binding affinity of ligands to PDK3 was analyzed by monitoring changes in the fluorescence emission intensity of protein [33]. Fluorescence measurements were carried out on the Jasco spectrofluorimeter (FP-6200, Japan). The experimental parameters were, λexc as 280 nm and λem in the range of 300–400 nm with slit width: 10 nm and medium sensitivity. All the measurements were carried out in triplicates and blank subtracted spectra were reported. The observed fluorescence values were corrected for the inner filter effect. Protein was titrated with an increasing concentration of ligands and each titration of protein. A decrease in the fluorescence intensity was mathematically evaluated using the modified Stern-Volmer equation [35] to estimate the binding parameters for hordenine-PDK3 interaction.
To measure the actual binding affinity of hordenine to PDK3, fluorescence binding studies were performed as described. […] The decrease in fluorescence intensity was mathematically analyzed using a double log relation (modified Stern−Volmer equation) to find the value of binding constant (K).

A549 cells = assay: MTT cell viability assay, A549; assay type: cell-based; conditions: Homo sapiens, 48 h, 0–200 μM, read-out: IC50, growth inhibition of A549 cells
Description: (§1) Cell cultures of H1299 and A549 cells were respectively maintained in RPMI-1640 and F12K cell growth medium, while HEK293 cells were maintained in DMEM (having 10% heat-inactivated FBS and 1% antibiotic-antimycotic solution) in a humidified CO2 incubator (5% CO2, 37 °C). These lung cancer cell lines were selected based on previous reports related to PDK3 [49]. Hordenine was evaluated for cell growth inhibition potential using the MTT assay as described. Briefly, the selected cells were plated in a 96-well culture plate (6000–7000 cells/well), and after 24 h cells were incubated with hordenine (0–200 μM) for 48 h. Following 48 h incubation of cells with hordenine, 25 µL MTT (from 5 mg/mL stock) was added and incubated for 4–5 h at 37 °C in a CO2 incubator. The resultant formazan was dissolved in 100 µL of DMSO and the absorbance was measured at 570 nm using a multiplate ELISA reader (BioRad). The percentage of cell viabilities was estimated using absorbance data and plotted as a function of hordenine concentration. Respective DMSO treatment was taken as vehicle control and subtracted from corresponding hordenine treatment groups, whereas for anticancer studies paclitaxel has been taken as a positive control.

HEK293 cells = assay: MTT cytotoxicity assay, HEK293; assay type: cell-based, human; conditions: 48 h, concentration range 0–200 μM
Description: as §1

PDK3 [2] = target: T1, PDK3; assay: Enzyme inhibition assay (ATPase, malachite green); assay type: biochemical; conditions: ATP 200 µM, PDK3 4 µM, 25 °C, 1 h; AAT Bioquest calculator
Description: Following our published protocols, an enzyme inhibition assay was carried out. Freshly prepared ATP (200 µM) was added to PDK3 (4 µM) and final reaction mixture of 100 μL was incubated at 25 °C for 1 h. Malachite green (200 μL) was further added to the reaction mixture to stop the reaction followed by incubation of samples at room temperature for 20–25 min for the development of color. From the final reaction mixture, 100 μL was transferred to a 96-well plate in triplicate to measure spectrophotometrically at 620 nm.
To further validate our fluorescence-based binding studies, an enzyme inhibition assay was carried out with increasing concentrations of hordenine to check the kinase inhibitory potential. The kinase activity was quantified and plotted as percent inhibition. The kinase activity of PDK3 alone was taken as 100% for reference. It is clear from Figure 5 that with an increasing concentration of hordenine (0–13.75 µM), there was a dose-dependent decrease in PDK3 activity.

PDK3 [3] = target: T1, PDK3; assay: Isothermal titration calorimetry; assay type: binding; conditions: ITC 25 °C
Description: ITC measurements were carried out at 25 °C on a VP-ITC microcalorimeter from MicroCal, Inc (GE, MicroCal, Northampton, MA, USA). The purified protein was extensively dialyzed and degassed before use to avoid the bubble problem. DMSO was added in an equal amount to the protein solution (1% v/v) to prevent signal stability problems during ITC measurements. The first injection was a false one (2 μL) and then successive injections of 10 μL followed by the initial false injection. The sample cell contained PDK3 while the syringe was filled with the hordenine. Data analysis was carried out using the attached MicroCal Origin 8.0. The values (Ka, ΔH, ΔS) were calculated after curve fitting as described in our previous communications.
Thermodynamic parameters associated with the interaction of hordenine to PDK3 were measured by ITC as described. […] Various studies report different values of thermodynamic parameters obtained from fluorescence spectroscopy and ITC and this is because ITC measures a global change in the thermodynamic properties while fluorescence spectroscopy takes into account only the local changes around the fluorophore (Trp214). In the upper panel, raw data with negative heat pulses is shown which confirms exothermic binding. Binding curves found after subtraction of dilution heat of both ligands and protein are depicted in the bottom section. The obtained ITC isotherm advocates the spontaneous binding of hordenine with PDK3. The results presented were obtained from four site model fitting and thermodynamic parameters obtained for this interaction are presented in Table 1.

H1299 cells = assay: MTT cell viability assay, H1299; assay type: cell-based; conditions: Homo sapiens, NCI-H1299, 48 h, 0–200 μM, read-out: IC50, growth inhibition of H1299 cells
Description: as §1

T1 sequence (Q15120 whole entry): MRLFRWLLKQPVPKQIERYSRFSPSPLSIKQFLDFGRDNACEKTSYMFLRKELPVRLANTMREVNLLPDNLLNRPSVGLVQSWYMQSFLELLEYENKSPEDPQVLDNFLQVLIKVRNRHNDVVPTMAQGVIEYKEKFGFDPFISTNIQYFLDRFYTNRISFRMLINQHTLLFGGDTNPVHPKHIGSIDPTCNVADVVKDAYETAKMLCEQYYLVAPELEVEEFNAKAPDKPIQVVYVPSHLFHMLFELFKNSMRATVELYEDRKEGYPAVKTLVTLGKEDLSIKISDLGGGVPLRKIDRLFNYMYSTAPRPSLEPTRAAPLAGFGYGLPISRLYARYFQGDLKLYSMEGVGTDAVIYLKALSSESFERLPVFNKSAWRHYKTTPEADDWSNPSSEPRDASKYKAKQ

CN(C)CCc1ccc(O)cc1 [hordenine, Hordenine]
Kd (PDK3 [1]): 1 µM and 2 µM
IC50 (A549 cells): 15 ± 2.13 µM
Growth inhibition / cytotoxicity on HEK293 cells (HEK293 cells): did not inhibit the growth of HEK293 cells
IC50 (PDK3 [2]): 5.4 µM
Kd (PDK3 [3]; 500 µM hordenine into 15 µM PDK3, four site model, site 1, read-out: Ka1 (Association Constant)): 51.3 µM
∆H1 (Enthalpy Change) (PDK3 [3]; four site model, site 1): ∆H1 = 4151 ± 1.2 × 10^3 cal/mol
∆S1 (PDK3 [3]; four site model, site 1): ∆S1 = 33.5 cal/mol/deg
∆H2 (Enthalpy Change) (PDK3 [3]; four site model, site 2): ∆H2 = −5.11 × 10^4 ± 4.18 × 10^3 cal/mol
∆S2 (PDK3 [3]; four site model, site 2): ∆S2 = −149 cal/mol/deg
Kd (PDK3 [3]; four site model, site 2, read-out: Ka2 (Association Constant)): 10.8 µM
∆H3 (Enthalpy Change) (PDK3 [3]; four site model, site 3): ∆H3 = 3.75 × 10^4 ± 5.20 × 10^3 cal/mol
∆S3 (PDK3 [3]; four site model, site 3): ∆S3 = 147 cal/mol/deg
Kd (PDK3 [3]; four site model, site 3, read-out: Ka3 (Association Constant)): 19.6 µM
∆H4 (Enthalpy Change) (PDK3 [3]; four site model, site 4): ∆H4 = −2.33 × 10^5 ± 1.03 × 10^4 cal/mol
∆S4 (PDK3 [3]; four site model, site 4): ∆S4 = −767 cal/mol/deg
Kd (PDK3 [3]; four site model, site 4 (printed Ka3), read-out: Ka3 (Association Constant), fourth line of the table): 400 µM
IC50 (H1299 cells): 21.3 ± 1.99 µM
